According to the NIST ThermoML archive (doi:10.1021/je5007696):
± gives the expanded uncertainty stated by the source.

Experiment: xn = mol fraction of the nth substance listed
Conditions: 100 kPa, Liquid; for viscosity: Concentric cylinders viscometry; for mass density: Vibrating tube method

CCC(C)=O [butanone] + CCCCO
Conditions	mass density [kg/m3]	viscosity [mPa·s]
288.15 K, x1 = 0.0997	813.126 ± 0.17	2.293 ± 0.013
288.15 K, x1 = 0.1999	812.877 ± 0.17	1.645 ± 0.011
288.15 K, x1 = 0.3003	812.583 ± 0.18	1.257 ± 0.01
288.15 K, x1 = 0.4008	812.253 ± 0.18	1.009 ± 0.0095
288.15 K, x1 = 0.5003	811.906 ± 0.19	0.8332 ± 0.009
288.15 K, x1 = 0.6001	811.555 ± 0.2	0.7013 ± 0.0086
288.15 K, x1 = 0.6992	811.203 ± 0.21	0.5975 ± 0.0084
288.15 K, x1 = 0.7991	810.843 ± 0.22	0.5248 ± 0.0082
288.15 K, x1 = 0.899	810.477 ± 0.23	0.4708 ± 0.008
288.15 K, x1 = 1	810.133 ± 0.24	0.4306 ± 0.008
293.15 K, x1 = 0.0997	809.157 ± 0.17	2.034 ± 0.013
293.15 K, x1 = 0.1999	808.747 ± 0.17	1.483 ± 0.011
293.15 K, x1 = 0.3003	808.3 ± 0.18	1.147 ± 0.0098
293.15 K, x1 = 0.4008	807.824 ± 0.18	0.9297 ± 0.0092
293.15 K, x1 = 0.5003	807.337 ± 0.19	0.7756 ± 0.0088
293.15 K, x1 = 0.6001	806.848 ± 0.2	0.6603 ± 0.0085
293.15 K, x1 = 0.6992	806.362 ± 0.21	0.5696 ± 0.0083
293.15 K, x1 = 0.7991	805.875 ± 0.22	0.4997 ± 0.0081
293.15 K, x1 = 0.899	805.39 ± 0.23	0.4505 ± 0.008
293.15 K, x1 = 1	804.926 ± 0.24	0.4136 ± 0.0079
298.15 K, x1 = 0.0997	805.165 ± 0.17	1.814 ± 0.012
298.15 K, x1 = 0.1999	804.592 ± 0.17	1.343 ± 0.01
298.15 K, x1 = 0.3003	803.992 ± 0.18	1.051 ± 0.0095
298.15 K, x1 = 0.4008	803.369 ± 0.19	0.8588 ± 0.009
298.15 K, x1 = 0.5003	802.741 ± 0.19	0.7227 ± 0.0086
298.15 K, x1 = 0.6001	802.114 ± 0.2	0.6178 ± 0.0084
298.15 K, x1 = 0.6992	801.494 ± 0.21	0.5358 ± 0.0082
298.15 K, x1 = 0.7991	800.878 ± 0.22	0.475 ± 0.008
298.15 K, x1 = 0.899	800.271 ± 0.23	0.4313 ± 0.0079
298.15 K, x1 = 1	799.695 ± 0.24	0.3962 ± 0.0078
303.15 K, x1 = 0.0997	801.147 ± 0.17	1.626 ± 0.011
303.15 K, x1 = 0.1999	800.407 ± 0.17	1.221 ± 0.0099
303.15 K, x1 = 0.3003	799.653 ± 0.18	0.9652 ± 0.0092
303.15 K, x1 = 0.4008	798.884 ± 0.19	0.7945 ± 0.0088
303.15 K, x1 = 0.5003	798.115 ± 0.19	0.6753 ± 0.0085
303.15 K, x1 = 0.6001	797.349 ± 0.2	0.5823 ± 0.0083
303.15 K, x1 = 0.6992	796.597 ± 0.21	0.5093 ± 0.0081
303.15 K, x1 = 0.7991	795.852 ± 0.22	0.4521 ± 0.008
303.15 K, x1 = 0.899	795.126 ± 0.23	0.4114 ± 0.0079
303.15 K, x1 = 1	794.435 ± 0.24	0.3793 ± 0.0078
308.15 K, x1 = 0.0997	797.097 ± 0.17	1.465 ± 0.011
308.15 K, x1 = 0.1999	796.195 ± 0.17	1.115 ± 0.0096
308.15 K, x1 = 0.3003	795.288 ± 0.18	0.8886 ± 0.009
308.15 K, x1 = 0.4008	794.369 ± 0.19	0.7364 ± 0.0086
308.15 K, x1 = 0.5003	793.457 ± 0.19	0.6314 ± 0.0084
308.15 K, x1 = 0.6001	792.551 ± 0.2	0.5453 ± 0.0082
308.15 K, x1 = 0.6992	791.666 ± 0.21	0.48 ± 0.008
308.15 K, x1 = 0.7991	790.793 ± 0.22	0.4294 ± 0.0079
308.15 K, x1 = 0.899	789.946 ± 0.23	0.3918 ± 0.0078
308.15 K, x1 = 1	789.142 ± 0.24	0.3626 ± 0.0078
313.15 K, x1 = 0.0997	793.009 ± 0.17	1.327 ± 0.01
313.15 K, x1 = 0.1999	791.945 ± 0.17	1.022 ± 0.0093
313.15 K, x1 = 0.3003	790.885 ± 0.18	0.8197 ± 0.0088
313.15 K, x1 = 0.4008	789.819 ± 0.19	0.6843 ± 0.0085
313.15 K, x1 = 0.5003	788.763 ± 0.2	0.5907 ± 0.0083
313.15 K, x1 = 0.6001	787.719 ± 0.2	0.5143 ± 0.0081
313.15 K, x1 = 0.6992	786.701 ± 0.21	0.4552 ± 0.0079
313.15 K, x1 = 0.7991	785.7 ± 0.22	0.4073 ± 0.0078
313.15 K, x1 = 0.899	784.731 ± 0.23	0.3723 ± 0.0078
313.15 K, x1 = 1	783.814 ± 0.24	0.3461 ± 0.0077
318.15 K, x1 = 0.0997	788.88 ± 0.17	1.206 ± 0.0098
318.15 K, x1 = 0.1999	787.652 ± 0.18	0.939 ± 0.0091
318.15 K, x1 = 0.3003	786.442 ± 0.18	0.7575 ± 0.0086
318.15 K, x1 = 0.4008	785.228 ± 0.19	0.637 ± 0.0083
318.15 K, x1 = 0.5003	784.03 ± 0.2	0.5532 ± 0.0081
318.15 K, x1 = 0.6001	782.849 ± 0.2	0.485 ± 0.008
318.15 K, x1 = 0.6992	781.696 ± 0.21	0.43 ± 0.0079
318.15 K, x1 = 0.7991	780.568 ± 0.22	0.386 ± 0.0078
318.15 K, x1 = 0.899	779.478 ± 0.23	0.3532 ± 0.0077
318.15 K, x1 = 1	778.451 ± 0.24	0.3303 ± 0.0077
323.15 K, x1 = 0.0997	784.708 ± 0.17	1.096 ± 0.0095
323.15 K, x1 = 0.1999	783.318 ± 0.18	0.8726 ± 0.0089
323.15 K, x1 = 0.3003	781.954 ± 0.18	0.7156 ± 0.0085
323.15 K, x1 = 0.4008	780.593 ± 0.19	0.6041 ± 0.0082
323.15 K, x1 = 0.5003	779.253 ± 0.2	0.5225 ± 0.0081
323.15 K, x1 = 0.6001	777.934 ± 0.2	0.4597 ± 0.0079
323.15 K, x1 = 0.6992	776.652 ± 0.21	0.4101 ± 0.0078
323.15 K, x1 = 0.7991	775.398 ± 0.22	0.369 ± 0.0077
323.15 K, x1 = 0.899	774.188 ± 0.23	0.3356 ± 0.0077
323.15 K, x1 = 1	773.047 ± 0.24	0.3168 ± 0.0076

COC(=O)CCCCC(=O)OC [dimethyl 1,6-hexanedioate] + CCC(C)=O
viscosity [mPa·s]
Conditions	x1 = 0.1002	x1 = 0.2002	x1 = 0.3002	x1 = 0.4004	x1 = 0.5001	x1 = 0.5999	x1 = 0.6998	x1 = 0.7994	x1 = 0.8997	x1 = 1
288.15 K	0.5707 ± 0.0081	0.7368 ± 0.0085	0.9419 ± 0.0092	1.183 ± 0.01	1.467 ± 0.011	1.802 ± 0.013	2.191 ± 0.015	2.636 ± 0.017	3.16 ± 0.021	3.751 ± 0.024
293.15 K	0.5434 ± 0.008	0.6952 ± 0.0084	0.8803 ± 0.009	1.096 ± 0.0097	1.347 ± 0.011	1.64 ± 0.012	1.974 ± 0.014	2.353 ± 0.016	2.794 ± 0.019	3.289 ± 0.022
298.15 K	0.5166 ± 0.0079	0.6563 ± 0.0083	0.824 ± 0.0088	1.019 ± 0.0095	1.242 ± 0.01	1.498 ± 0.012	1.79 ± 0.013	2.12 ± 0.015	2.491 ± 0.017	2.91 ± 0.02
303.15 K	0.4912 ± 0.0079	0.6199 ± 0.0082	0.7742 ± 0.0087	0.9509 ± 0.0093	1.15 ± 0.01	1.38 ± 0.011	1.635 ± 0.012	1.921 ± 0.014	2.241 ± 0.016	2.604 ± 0.018
308.15 K	0.4667 ± 0.0078	0.5865 ± 0.0081	0.7277 ± 0.0085	0.8892 ± 0.0091	1.069 ± 0.0098	1.274 ± 0.011	1.5 ± 0.012	1.75 ± 0.013	2.033 ± 0.015	2.342 ± 0.017
313.15 K	0.4425 ± 0.0078	0.555 ± 0.0081	0.6853 ± 0.0084	0.8331 ± 0.0089	0.9961 ± 0.0095	1.181 ± 0.01	1.382 ± 0.011	1.604 ± 0.012	1.851 ± 0.014	2.121 ± 0.015
318.15 K	0.4199 ± 0.0077	0.525 ± 0.008	0.6465 ± 0.0083	0.7827 ± 0.0088	0.9324 ± 0.0093	1.098 ± 0.01	1.279 ± 0.011	1.476 ± 0.012	1.695 ± 0.013	1.933 ± 0.015
323.15 K	0.4037 ± 0.0077	0.502 ± 0.0079	0.6165 ± 0.0082	0.7425 ± 0.0086	0.883 ± 0.0091	1.036 ± 0.0097	1.202 ± 0.011	1.381 ± 0.011	1.577 ± 0.013	1.79 ± 0.014
